Our source for the gel appearance and minimum gelling concentration values is patent publication US9198846B2, “Basic amino acid derivative” (AJINOMOTO CO., INC., priority 2012, dated 2015).

This data set in a line: Gelling ability of basic amino acid derivatives (test tube tilting, visual appearance). Type of data set: physicochemical. Also noted: key to gel appearance: GT: transparent gel; GTL: translucent gel; GO: opaque gel. Conditions: heated to 100° C., stood at 25° C. for 2 hr. As for the experimental part: The gelling ability of various basic amino acid derivatives prepared in Production Examples 1-4, 7, 9 and 10 was confirmed. Test tube equipped with a cover was filled with water, saline, phosphate buffered saline (hereinafter indicated as PBS), and aqueous NaCl solution or aqueous KCl solution, and a basic amino acid derivative was added at various concentrations. The mixture was heated to 100° C. to achieve homogeneous dissolution, and stood at 25° C. for 2 hr. After allowing to cool, the test tube was tilted, and the absence of fluidity was judged as gellation, and the appearance was visually observed.
Abbreviations mean the following. • GT: transparent gel • GTL: translucent gel • GO: opaque gel

`CCCCCCCCCCCC(=O)NCCCC[C@H](NC(=O)CC(CCCCCCCCCC)C(=O)[O-])C(=O)OCC.[Na+]` (stereo partly drawn) [Production Example 1, N^ε-lauroyl-N^α-(3-carboxytridecanoyl)-L-lysine ethyl ester sodium salt]: the gel appearance result runs as follows: (0.1M aqueous KCl solution) “GTL”; (0.1M aqueous NaCl solution) “GTL”; (saline) “GTL”; (water) “GTL”. Besides, the minimum gelling concentration (0.1M aqueous KCl solution) came out at 15 g/L, the minimum gelling concentration (0.1M aqueous NaCl solution) was 10 g/L, the minimum gelling concentration (saline) is listed as 20 g/L and the minimum gelling concentration (water) was found to be 25 g/L.

As for `CCCCCCCCCCCC(=O)NCCCC[C@H](NC(=O)CC(CCCCCCCCCC)C(=O)[O-])C(=O)OCC.[K+]` (stereo partly drawn) [Production Example 2, N^ε-lauroyl-N^α-(3-carboxytridecanoyl)-L-lysine ethyl ester potassium salt], the gel appearance entry was “GTL” (0.1M aqueous KCl solution), “GTL” (0.1M aqueous NaCl solution), “GTL” (saline) and “GTL” (water). The minimum gelling concentration is 10 g/L (0.1M aqueous KCl solution), 10 g/L (0.1M aqueous NaCl solution), 20 g/L (saline) and 20 g/L (water).

As for `CCCCCCCCCCCC(=O)NCCCC[C@H](NC(=O)CC(CCCCCCCCCC)C(=O)[O-])C(=O)O.[Na+]` (stereo partly drawn) [Production Example 3, N^ε-lauroyl-N^α-(3-carboxytridecanoyl)-L-lysine monosodium salt], the gel appearance entry runs as follows: (0.1M aqueous KCl solution) “GTL”; (0.1M aqueous NaCl solution) “GTL”; (1.0M aqueous KCl solution) “GO”; (PBS) “GO”; (saline) “GTL”; (water) “GTL”. Besides, the minimum gelling concentration is, setting by setting: (0.1M aqueous KCl solution) 20 g/L; (0.1M aqueous NaCl solution) 20 g/L; (1.0M aqueous KCl solution) 20 g/L; (PBS) 60 g/L; (saline) 50 g/L; (water) 50 g/L.

Regarding `CCCCCCCCCCCC(=O)NCCCC[C@H](NC(=O)CC(CCCCCCCCCC)C(=O)[O-])C(=O)O.[K+]` (stereo partly drawn) [Production Example 4, N^ε-lauroyl-N^α-(3-carboxytridecanoyl)-L-lysine monopotassium salt], the gel appearance result (0.1M aqueous KCl solution) was “GTL”; the gel appearance result (0.1M aqueous NaCl solution) is “GTL”; the gel appearance entry (1.0M aqueous KCl solution) was “GO”; the gel appearance result (PBS) is “GO”; the gel appearance result (saline) is “GTL”; the gel appearance result (water) was “GTL”. Also, the minimum gelling concentration worked out at 40 g/L (0.1M aqueous KCl solution); 20 g/L (0.1M aqueous NaCl solution); 20 g/L (1.0M aqueous KCl solution); 60 g/L (PBS); 50 g/L (saline); 60 g/L (water).

`CCCCCCCCCCCC(=O)NCCCC[C@H](NC(=O)CCCCCCC(=O)[O-])C(=O)O.[Na+]` [Production Example 7, N^ε-lauroyl-N^α-(7-carboxyheptanoyl)-L-lysine monosodium salt]: the gel appearance entry is “GT” (0.1M aqueous KCl solution); “GTL” (0.1M aqueous NaCl solution); “GT” (1.0M aqueous KCl solution); “GT” (1.0M aqueous NaCl solution); “GT” (PBS); “GT” (saline). The minimum gelling concentration (0.1M aqueous KCl solution) is 30 g/L; the minimum gelling concentration (0.1M aqueous NaCl solution) turned out to be 30 g/L; the minimum gelling concentration (1.0M aqueous KCl solution) is on record as 4 g/L; the minimum gelling concentration (1.0M aqueous NaCl solution) is 4 g/L; the minimum gelling concentration (PBS) was determined as 30 g/L; the minimum gelling concentration (saline) is listed as 30 g/L.

Turning to `CCCCCCCCCCCC(=O)NCCCC[C@H](NC(=O)CCCCCCCCC(=O)[O-])C(=O)O.[Na+]` [Production Example 9, N^ε-lauroyl-N^α-(9-carboxynonanoyl)-L-lysine monosodium salt], the gel appearance result (0.1M aqueous KCl solution) was “GT”; the gel appearance entry (0.1M aqueous NaCl solution) is listed as “GT”; the gel appearance entry (1.0M aqueous KCl solution) is “GT”; the gel appearance result (1.0M aqueous NaCl solution) is “GT”; the gel appearance entry (PBS) is given as “GT”; the gel appearance entry (saline) is “GT”. Further, the gel appearance entry (water) is listed as “GTL”. The minimum gelling concentration turned out to be 4 g/L (0.1M aqueous KCl solution); 4 g/L (0.1M aqueous NaCl solution); 4 g/L (1.0M aqueous KCl solution); 4 g/L (1.0M aqueous NaCl solution); 4 g/L (PBS); 4 g/L (saline). Further, for the setting “water”, the minimum gelling concentration is recorded as 30 g/L.

Turning to `CCCCCCCCCCCC(=O)NCCCC[C@H](NC(=O)CCCCCCCCC(=O)[O-])C(=O)O.[K+]` [Production Example 10, N^ε-lauroyl-N^α-(9-carboxynonanoyl)-L-lysine monopotassium salt], the gel appearance result is listed as “GT” (0.1M aqueous KCl solution); “GT” (0.1M aqueous NaCl solution); “GT” (1.0M aqueous KCl solution); “GT” (1.0M aqueous NaCl solution); “GT” (PBS); “GT” (saline). Also, the gel appearance result (water) is “GTL”. For the same compound, the minimum gelling concentration was 4 g/L (0.1M aqueous KCl solution); 10 g/L (0.1M aqueous NaCl solution); 4 g/L (1.0M aqueous KCl solution); 4 g/L (1.0M aqueous NaCl solution); 4 g/L (PBS); 4 g/L (saline). Further, under “water”, the minimum gelling concentration is 30 g/L.
